Measured values reported in paper PMC8212709 (Clinical and Translational Science, 2021).

Assay: Phase I SRD/MRD safety and tolerability
Format: in vivo, human (healthy subjects)
[1] = SRD single dose 17.5 mg (n = 6)

In the case of C=CC(=O)N1CC[C@H](Oc2nc(-c3n[nH]c(=O)[nH]3)cc3ccccc23)C1 [TAK‐020], the TEAEs (SRD single dose 0.1 mg (n = 6)) is reported as 0 n (%), the “TEAEs Leading to DC” value (SRD single dose 0.1 mg (n = 6)) is reported as 0 n (%) and the “TEAEs, Mild” value (SRD single dose 0.1 mg (n = 6)) is reported as 0 n (%). The “TEAEs, Moderate” value (SRD single dose 0.1 mg (n = 6)) was 0 n (%), the “TEAEs, Not related” value (SRD single dose 0.1 mg (n = 6)) was 0 n (%) and the “TEAEs, Related” value (SRD single dose 0.1 mg (n = 6)) was 0 n (%). For the same molecule, the “TEAEs, Severe” value (SRD single dose 0.1 mg (n = 6)) was 0 n (%), the Deaths (SRD single dose 0.5 mg (n = 6)) was 0 n (%) and the “Serious TEAEs” value (SRD single dose 0.5 mg (n = 6)) was 0 n (%). For the same molecule, the “Serious TEAEs, Not related” value (SRD single dose 0.5 mg (n = 6)) was 0 n (%), the “Serious TEAEs, Related” value (SRD single dose 0.5 mg (n = 6)) was 0 n (%) and the TEAEs (SRD single dose 0.5 mg (n = 6)) was 0 n (%). The “TEAEs Leading to DC” value (SRD single dose 0.5 mg (n = 6)) was 0 n (%), the “TEAEs, Mild” value (SRD single dose 0.5 mg (n = 6)) was 0 n (%) and the “TEAEs, Moderate” value (SRD single dose 0.5 mg (n = 6)) was 0 n (%). For the same molecule, the “TEAEs, Not related” value (SRD single dose 0.5 mg (n = 6)) was 0 n (%), the “TEAEs, Related” value (SRD single dose 0.5 mg (n = 6)) was 0 n (%) and the “TEAEs, Severe” value (SRD single dose 0.5 mg (n = 6)) was 0 n (%). For the same molecule, the Deaths (SRD single dose 2.5 mg (n = 6)) was 0 n (%), the “Serious TEAEs” value (SRD single dose 2.5 mg (n = 6)) was 0 n (%) and the “Serious TEAEs, Not related” value (SRD single dose 2.5 mg (n = 6)) was 0 n (%). For the same molecule, the “Serious TEAEs, Related” value (SRD single dose 2.5 mg (n = 6)) was 0 n (%), the TEAEs (SRD single dose 2.5 mg (n = 6)) was 1 (16.7) n (%) and the “TEAEs Leading to DC” value (SRD single dose 2.5 mg (n = 6)) was 0 n (%). The “TEAEs, Mild” value (SRD single dose 2.5 mg (n = 6)) was 1 (16.7) n (%), the “TEAEs, Moderate” value (SRD single dose 2.5 mg (n = 6)) was 0 n (%) and the “TEAEs, Not related” value (SRD single dose 2.5 mg (n = 6)) was 0 n (%). For the same molecule, the “TEAEs, Related” value (SRD single dose 2.5 mg (n = 6)) was 1 (16.7) n (%), the “TEAEs, Severe” value (SRD single dose 2.5 mg (n = 6)) was 0 n (%) and the Deaths (SRD single dose 4.4 mg (n = 6)) was 0 n (%). The “Serious TEAEs” value (SRD single dose 4.4 mg (n = 6)) was 0 n (%), the “Serious TEAEs, Not related” value (SRD single dose 4.4 mg (n = 6)) was 0 n (%) and the “Serious TEAEs, Related” value (SRD single dose 4.4 mg (n = 6)) was 0 n (%). The TEAEs (SRD single dose 4.4 mg (n = 6)) was 0 n (%), the “TEAEs Leading to DC” value (SRD single dose 4.4 mg (n = 6)) was 0 n (%) and the “TEAEs, Mild” value (SRD single dose 4.4 mg (n = 6)) was 0 n (%). For the same molecule, the “TEAEs, Moderate” value (SRD single dose 4.4 mg (n = 6)) was 0 n (%), the “TEAEs, Not related” value (SRD single dose 4.4 mg (n = 6)) was 0 n (%) and the “TEAEs, Related” value (SRD single dose 4.4 mg (n = 6)) was 0 n (%). For the same molecule, the “TEAEs, Severe” value (SRD single dose 4.4 mg (n = 6)) was 0 n (%), the Deaths (SRD single dose 8.8 mg (n = 6)) was 0 n (%) and the “Serious TEAEs” value (SRD single dose 8.8 mg (n = 6)) was 0 n (%). For the same molecule, the “Serious TEAEs, Not related” value (SRD single dose 8.8 mg (n = 6)) was 0 n (%), the “Serious TEAEs, Related” value (SRD single dose 8.8 mg (n = 6)) was 0 n (%) and the TEAEs (SRD single dose 8.8 mg (n = 6)) was 1 (16.7) n (%). For the same molecule, the “TEAEs Leading to DC” value (SRD single dose 8.8 mg (n = 6)) was 0 n (%), the “TEAEs, Mild” value (SRD single dose 8.8 mg (n = 6)) was 1 (16.7) n (%) and the “TEAEs, Moderate” value (SRD single dose 8.8 mg (n = 6)) was 0 n (%). The “TEAEs, Not related” value (SRD single dose 8.8 mg (n = 6)) was 0 n (%), the “TEAEs, Related” value (SRD single dose 8.8 mg (n = 6)) was 1 (16.7) n (%) and the “TEAEs, Severe” value (SRD single dose 8.8 mg (n = 6)) was 0 n (%). The Deaths [1] was 0 n (%), the “Serious TEAEs” value [1] was 0 n (%) and the “Serious TEAEs, Not related” value [1] was 0 n (%). For the same molecule, the “Serious TEAEs, Related” value [1] was 0 n (%), the TEAEs [1] was 0 n (%) and the “TEAEs Leading to DC” value [1] was 0 n (%). For the same molecule, the “TEAEs, Mild” value [1] was 0 n (%), the “TEAEs, Moderate” value [1] was 0 n (%) and the “TEAEs, Not related” value [1] was 0 n (%). For the same molecule, the “TEAEs, Related” value [1] was 0 n (%), the “TEAEs, Severe” value [1] was 0 n (%) and the Deaths (SRD single dose 35 mg (n = 6)) was 0 n (%). For the same molecule, the “Serious TEAEs” value (SRD single dose 35 mg (n = 6)) was 0 n (%), the “Serious TEAEs, Not related” value (SRD single dose 35 mg (n = 6)) was 0 n (%) and the “Serious TEAEs, Related” value (SRD single dose 35 mg (n = 6)) was 0 n (%). The TEAEs (SRD single dose 35 mg (n = 6)) was 0 n (%), the “TEAEs Leading to DC” value (SRD single dose 35 mg (n = 6)) was 0 n (%) and the “TEAEs, Mild” value (SRD single dose 35 mg (n = 6)) was 0 n (%). The “TEAEs, Moderate” value (SRD single dose 35 mg (n = 6)) was 0 n (%), the “TEAEs, Not related” value (SRD single dose 35 mg (n = 6)) was 0 n (%) and the “TEAEs, Related” value (SRD single dose 35 mg (n = 6)) was 0 n (%). The “TEAEs, Severe” value (SRD single dose 35 mg (n = 6)) was 0 n (%), the Deaths (SRD single dose 70 mg (n = 6)) was 0 n (%) and the “Serious TEAEs” value (SRD single dose 70 mg (n = 6)) was 0 n (%). For the same molecule, the “Serious TEAEs, Not related” value (SRD single dose 70 mg (n = 6)) was 0 n (%), the “Serious TEAEs, Related” value (SRD single dose 70 mg (n = 6)) was 0 n (%) and the TEAEs (SRD single dose 70 mg (n = 6)) was 3 (50.0) n (%). For the same molecule, the “TEAEs Leading to DC” value (SRD single dose 70 mg (n = 6)) was 0 n (%), the “TEAEs, Mild” value (SRD single dose 70 mg (n = 6)) was 3 (50.0) n (%) and the “TEAEs, Moderate” value (SRD single dose 70 mg (n = 6)) was 0 n (%). For the same molecule, the “TEAEs, Not related” value (SRD single dose 70 mg (n = 6)) was 2 (33.3) n (%), the “TEAEs, Related” value (SRD single dose 70 mg (n = 6)) was 1 (16.7) n (%) and the “TEAEs, Severe” value (SRD single dose 70 mg (n = 6)) was 0 n (%). For the same molecule, the Deaths (SRD single dose 105 mg (n = 6)) was 0 n (%), the “Serious TEAEs” value (SRD single dose 105 mg (n = 6)) was 0 n (%) and the “Serious TEAEs, Not related” value (SRD single dose 105 mg (n = 6)) was 0 n (%). The “Serious TEAEs, Related” value (SRD single dose 105 mg (n = 6)) was 0 n (%), the TEAEs (SRD single dose 105 mg (n = 6)) was 1 (16.7) n (%) and the “TEAEs Leading to DC” value (SRD single dose 105 mg (n = 6)) was 0 n (%). The “TEAEs, Mild” value (SRD single dose 105 mg (n = 6)) was 1 (16.7) n (%), the “TEAEs, Moderate” value (SRD single dose 105 mg (n = 6)) was 0 n (%) and the “TEAEs, Not related” value (SRD single dose 105 mg (n = 6)) was 1 (16.7) n (%). The “TEAEs, Related” value (SRD single dose 105 mg (n = 6)) was 0 n (%), the “TEAEs, Severe” value (SRD single dose 105 mg (n = 6)) was 0 n (%) and the “percentage of subjects who experienced TEAEs” value (SRD, overall TAK‐020 group) was 11.1%.
